{"source": "patent US20180320177A1", "about": "“COMPOSITIONS AND METHODS FOR THE TREATMENT OF LIVER FIBROSIS” (UNIVERSITY OF CONNECTICUT, priority 2015, published 2018)", "key": {"[1]": {"system": "CCl4-induced inflammation", "assay": "CCl4-induced inflammation in mouse liver", "type": "in vivo", "details": "CCl4-treated mice (FIG. 4C, 4D)", "method": "Animal Care: All animal care and experimental procedures were approved by the Institutional Animal Care and Use Committee at the University of Connecticut. Shp^−/− mice were described previously. Hmgb2^−/− mice were obtained from Dr. Stella Tsirka at Stony Brook University. C57BL/6J mice were purchased from Jackson Laboratory. All mice were maintained on a 12-h light/dark cycle with free access to food and water unless otherwise indicated. For CCl4 treatment, CCl4 (Sigma) was dissolved in corn oil and administered to mice at a dose of 850 μl/kg BW by intraperitoneal injection (IP) twice a week for 6 or 10 weeks with or without ICM. Age-matched control mice were treated with a corn oil vehicle. For CCl4+ICM treatment, mice were treated with CCl4 for 2 weeks and then ICM (Department of Pharmaceutical Sciences at UConn) was dissolved in PEG (Sigma) and treated with mice (10 mg/kg) every day for 4 or 8 weeks in combination with CCl4. To induce overexpression of HMGB2 in liver, AAV8-Hmgb2 or a control AAV8-GFP was given to mice by tail vein injection at a dose of 5×10^10 GC. To knockdown HMGB2 in mouse livers, AAV-shHmgb2 or a control AAV-shGFP was delivered to mice at a dose of 2×10^10 GC by tail vein injection. One week later, mice injected with AAVs were treated with CCl4 or CCl4 +ICM as described above and sacrificed. […]"}, "[2]": {"system": "TIC cells", "assay": "TIC cell migration and invasion assays", "type": "cell-based", "details": "TIC cells (FIG. 7C, 7D)", "method": "Cell Lines The LX-2 human stellate cell line was maintained in Dulbecco's Modified Eagle's Medium (DMEM) supplemented with 2% fetal bovine serum (FBS), 100 IU/ml penicillin, and 100 μg/ml streptomycin. Human hepatocellular carcinoma (HCC) MHCC97H cells were maintained in DMEM supplemented with 10% FBS, 100 IU/ml penicillin, and 100 μg/ml streptomycin, 1 mM HEPES, 1 mM sodium pyruvate, 2 mM L-glutamine. Tumor-initiating (TIC) cells were obtained from Dr. Hidekazu Tsukamoto at University of Southern California and were maintained in 1:1 DMEM:F12 supplement with 100 U/ml penicillin and 100 μg/ml streptomycin, 2 mM glutamine, 20 ng/ml mouse EGF, 10 nM dexamethasone, 1× embryomax nucleotides. All the cells were maintained at 37° C. humidified atmosphere with 5% CO2. TIC cells were infected with Hmgb2 shRNA lentivirus for 48 hr, and treated with 500 ng/ml puromycin for 2 weeks. The stable cells were used for migration and invasion assay, as well as western blot.\nCell Migration and Invasion: Cell migration and invasion assays were performed as described in the art. Briefly, control TIC cells or TIC cells with a stable knockdown of HMGB2 were infected with AAV8-Null or AAV-8-HMGB2 for 48 hr. The cells were then serum starved for 24 hr and 5×10^4 cells were seeded on transwell inserts with 8 μm pore size (Culterx® 96 well cell migration assay, cat# 3465-095-K). Cells were allowed to migrate for 16 hr. Non-migrating cells were removed from the insert with a cotton swab. The migrated cells were fixed for 10 min (3.7% v/v formaldehyde in PBS), and stained with 0.1% crystal violet for 15 min. Cells were washed with PBS and pictures were taken with Microfire/Qcam CCD Olympus 1×81 microscope. Cells stained with crystal violet were counted and then lysed with 1% SDS for 30 min and the absorbance was measured at 570 nm. Cell invasion assays were performed similarly to migration assays, except that the cells were seeded on pre-coated inserts with BME solution (Cultrex® 96 well BME cell invasion Assay, cat# 3455-096-K). Invaded cells were fixed, stained and the absorbance was measured as in the migration assay."}}}
{"compound": "CC1(C)Oc2cc(O)ccc2C2C1=CCn1c(=O)n(-c3ccccc3)c(=O)n12", "note": "(stereo not drawn) [ICM, inflachromene]", "values": [{"measurement": "inflammatory response", "setting": "[1]", "value": "decrease inflammatory response"}, {"measurement": "cell invasion", "setting": "[2]", "value": "markedly blocks"}, {"measurement": "cell migration", "setting": "[2]", "value": "markedly blocks"}]}
{"compound": "shHMGB2: small hairpin RNA against HMGB2 (SEQ ID NO: 8), delivered by AAV or lentivirus (CCGGGCTCAACATTAGCTTCAGTATCTCGAGATACTGAAGCTAATGTTGAGCTTTTTG)", "values": [{"measurement": "inflammatory response", "setting": "[1]", "value": "decrease inflammatory response"}, {"measurement": "cell invasion", "setting": "[2]", "value": "decreased"}, {"measurement": "cell migration", "setting": "[2]", "value": "decreased"}]}
